Measured values published in patent publication US6294526A, “Use of flavone derivatives for induction of β-lactam-sensitivity of MRSA” (priority 1998, dated 2001).
Values after ≈ are worked out from the molar mass of the structure shown. Read-outs that look alike come from different tables or passages of the source. One block for each compound: values may come before it.

Experiments:
MRSA [1] = assay: antibacterial activity (MIC) by agar plate dilution method, MRSA strains; type: cell-based, methicillin-resistant Staphylococcus aureus; conditions: Staphylococcus aureus, 20 h, MRSA (20 strains); for MIC50: read-out: MIC50; for MIC: MRSA, range over strains, read-out: MIC
Method in brief: (§1)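 Mueller-Hinton agar plates containing 2-fold serial β-lactam dilutions plus a fixed concentration of test sample; inoculum 10^6 CFU/ml, 37° C. for 20 hours. MIC read as concentration inhibiting growth; MIC80 and MIC50 = 80% and 50% growth inhibition. Flavones dissolved in methanol, others in 0.1 N NaOH.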

MSSA [2] = assay: antibacterial activity (MIC) by agar plate dilution method, MSSA strains; type: cell-based, Methicillin-sensitive Staphylooccus aureus; conditions: Staphylococcus aureus, 20 h, MSSA (7 strains); for MIC50: read-out: MIC50; for MIC: MSSA, range over strains, read-out: MIC
Method in brief: as §1

MRSA or MSSA = assay: inhibition of methicillin resistance by flavone derivatives, MRSA or MSSA; type: cell-based, Staphylococcus aureus; conditions: methicillin with flavone derivative, Table 4
Procedure: (§2) The screening of the present invention may be carried out according to the agar plate dilution method designated by the Japan Society of Chemotherapy (Chemotherapy 29(1), 76-79 (1981)). Mueller-Hinton agar base semi-synthetic medium may be used for a plate culture medium for a sensitivity test together with an inoculating bacteria solution which may be prepared by culturing bacteria to be tested at 37° C. for 20 hours diluted with 8.5% by isotonic sodium chloride solution to 10^6 CFU/ml. Diluted β-lactam solutions are prepared by two times serial dilution. 1 ml of the diluted β-lactam solution and 1 ml of a predetermined concentration of a sample to be tested are added to 8 ml of the plate culture medium for a sensitivity test. […]
(§3) Mueller-Hinton agar base semi-synthetic medium was used as a plate culture medium for the sensitivity test, and an inoculating bacteria solution was prepared by culturing bacteria to be tested at 37° C. for 20 hours and diluting with 8.5% by weight isotonic sodium chloride solution to a final concentration of 10^6 CFU/ml. […] To the resultant plate culture medium for the sensitivity test, the inoculating bacteria were inoculated using a microplanter (SAKUMASEISAKUSYO Co.), cultured for 20 hours at 37° C. and then minimum inhibition concentration (MIC) was assessed.

MRSA [3] = assay: antibacterial activity of antibiotics alone and in the presence of apigenin (4 μg/ml), MRSA; type: cell-based, methicillin-resistant Staphylococcus aureus; conditions: for MIC50: MRSA
Method in brief: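 MICs were determined by agar plate dilution on Mueller-Hinton medium with two-fold serial antibiotic dilutions, alone or together with apigenin at 4 μg/ml. The MRSA inoculum was 10^6 CFU/ml. Plates were incubated at 37 °C for 20 h.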

MRSA [4] = assay: antibacterial activity of methicillin in the presence of flavone derivatives, MRSA; type: cell-based, methicillin-resistant Staphylococcus aureus
Procedure: as §2, §3

MSSA [5] = assay: antibacterial activity of methicillin in the presence of flavone derivatives, MSSA; type: cell-based, Methicillin-sensitive Staphylooccus aureus; conditions: Staphylococcus aureus, 20 h; methicillin alone; MSSA (7 strains)
Procedure: as §2, §3

MRSA No. 5 [6] = assay: effect of flavone on antibacterial activity of antibiotics against MRSA No. 5 in bouillon (broth microdilution); type: cell-based, methicillin-resistant Staphylococcus aureus; conditions: for MIC: Staphylococcus aureus, MRSA, 20 h, read-out: MIC
Procedure: Alternatively, the screening of the present invention may be carried out according to the broth microdilution method designated by the Japan Society of Chemotherapy (Chemotherapy 38(1), 102-105 (1990)). Muellar-Hinton broth is used as a culture medium for the sensitivity test, and 50 mg/ml of calcium(Ca) ion, 25 mg/ml of magnesium(Mg) ion, and 2% sodium chloride (NaCl) are added thereto. An inoculating bacteria solution may be prepared by culturing bacteria to be tested in Mueller-Hinton broth at 37° C. for 20 hours and diluting with Mueller-Hinton broth to 10^5 CFU/ml final concentration of inoculating bacteria. Diluted β-lactam solution is prepared by two times serial dilution series. 10 μl of the diluted β-lactam solution and 10 μl of a predetermined concentration of a sample of bacteria to be tested are added to mix with 80 μl of the culture medium for the sensitivity test. To the resultant plate culture medium for sensitivity test, the inoculating bacteria are added and culturing is carried out for 20 hours at 37° C. and then assessment for a minimum inhibition concentration (MIC) is carried out. A minimum inhibition concentration means the minimum concentration of β-lactam at which growth of bacteria is not recognized by the naked eye.
(G) Antibacterial activity of 6 β-lactams, that is, cephalothin, cefuroxime, cefotaxime, cefoxitin, streptomycin and vancomycin, against MRSA in the presence of 0.5 mM flavone was studied in bouillon.
Muellar-Hinton broth was used as a culture medium for the sensitivity test, and 50 mg/ml of calcium (Ca) ion, 25 mg/ml of maqnesium (Mg) ion, 2% sodium chloride (NaCl) were added thereto. An inoculating bacteria solution was prepared by culturing bacteria to be tested with Mueller-Hinton broth at 37° C. for 20 hours and diluting with Mueller-Hinton broth to 10^5 CFU/ml final concentration of inoculating bacteria. Diluted β-lactam solutions were prepared in two times serial dilutions starting from 10 mM. Ten microliters of the diluted β-lactam solution and 10 μl of 5 mM of flavone were mixed with 80 μl of the culture medium for the sensitivity test in a microplate having U-shaped wells and samples of bacteria to be tested were added thereto. The mixture was cultured 20 hours at 37° C. and then assessed for minimum inhibition concentration (MIC). Minimum inhibition concentration means minimum concentration of a β-lactum at which growth of bacteria is inhibited to the extent that bacteria is not recognized by the naked eye.

MRSA No. 5 [7] = assay: as above; type: cell-based, methicillin-resistant Staphylococcus aureus; conditions: for MIC: Staphylococcus aureus, MRSA, 20 h, read-out: antibacterial activity of methicillin against MRSA No. 5

MIC50 (MRSA [1]): > 250 µg/mL | MIC (MRSA [1]): > 250 µg/mL | MIC50 (MSSA [2]): > 250 µg/mL | MIC (MSSA [2]): > 250 µg/mL
SMILES: O=C1c2c(O)cc(O)cc2O[C@H](c2ccc(O)c(O)c2)[C@H]1O [(+)-Taxifolin, (+)-taxifolin]
inhibition of resistance to methicillin (in words) (MRSA or MSSA): inhibited resistance to methicillin

MIC50 (MRSA [1]): > 250 µg/mL | MIC (MRSA [1]): > 250 µg/mL | MIC50 (MSSA [2]): > 250 µg/mL | MIC (MSSA [2]): > 250 µg/mL
SMILES: O=c1cc(-c2ccccc2)oc2ccccc12 [Flavone, flavone]
inhibition of resistance to methicillin (in words) (MRSA or MSSA): inhibited the most strongly

MIC50 (MRSA [3]; Antibiotics alone): > 250 µg/mL | MIC50 (MRSA [3]; Antibiotics alone, listed as methicillin): 1000 µg/mL | MIC50 (MRSA [3]; Staphylococcus aureus, 20 h, antibiotic with Apigenin (4 μg/ml), read-out: MIC50): 15.6 µg/mL | MIC50 (MRSA [4]; Staphylococcus aureus, 20 h, methicillin alone, MRSA (20 strains)): > 250 µg/mL | MIC (MSSA [5]): 0.98 to 2 µg/mL | MIC50 (MSSA [5]): 2 µg/mL | MIC (MRSA No. 5 [6]; Concentration of flavone 0 mM): 1000 µM (≈ 380 µg/mL) | MIC (MRSA No. 5 [6]; Concentration of flavone 0.5 mM): 15.6 µM (≈ 5.93 µg/mL) | MIC (MRSA No. 5 [7]; Control (no flavone)): > 1000 µM | MIC (MRSA No. 5 [7]; flavone 0.11 mM (25 μg/ml)): 1000 µM (≈ 380 µg/mL) | MIC (MRSA No. 5 [7]; flavone 0.2 mM): 31.2 µM (≈ 11.9 µg/mL) | MIC (MRSA No. 5 [7]; flavone 0.23 mM (50 μg/ml)): 31.2 µM (≈ 11.9 µg/mL) | MIC (MRSA No. 5 [7]; flavone 0.5 mM): 15.6 µM (≈ 5.93 µg/mL)
SMILES: COc1cccc(OC)c1C(=O)N[C@@H]1C(=O)N2[C@@H]1SC(C)(C)[C@@H]2C(=O)O [Methicillin, methicillin]
times as potent as methicillin alone (MRSA [3]; MIC50, methicillin plus 4 μg/ml apigenin vs methicillin alone): about 700 times | inhibition of β-lactam resistant MRSA / improvement of antibacterial effect with apigenin (in words) (MRSA [3]; apigenin 4 μg/ml or less than its MIC): inhibited β-lactam resistant MRSA | antibacterial activity of methicillin on MRSA No.5 (in words) (MRSA [4]; under the presence of flavone): strong on MRSA No.5 | inhibitory effect on resistance of MRSA No.5 (in words) (MRSA No. 5 [6]; in the presence of flavone 0.5 mM): showed inhibitory effect on resistance of MRSA No.5 | antibacterial activity of methicillin against MRSA (in words) (MRSA No. 5 [7]; flavone 0.2 mM): prominently shown | antibacterial activity of methicillin against MRSA (in words) (MRSA No. 5 [7]; in proportion to increase of flavone concentration): increased
